Results on ten compounds are retold here after patent EP1377579B1 (Aventis Pharmaceuticals Inc., priority 2000, dated 2002).

pIC50: −log10 of the molar value. Counter-ions that a name gives are not always drawn. Bounds are passed on as bounds.

The subject of one experiment is HL-60. The experiment in a line: In vitro proliferation assay (MTT), HL-60. In kind it is cell-based. To be noted: Homo sapiens, HL-60; MTT assay; value (SD, n) where given; read-out: HL-60 Leuk. (IC50 µM). The method, then:
(§1) The proliferation of tumor cells can be measured using a tetrazolium salt-based assay known as the MTT (3-[4,5-Dimethylthiazol-2-yl]-2,5-diphenyltetrazolium bromide) assay. The proliferation test is performed essentially as described by Carmichael et al., Cancer Res. 47: 936-942, 1987. For the assay, the cell lines are plated onto 96 well plates at 1000 to 2500 cells/well (depending on the properties of the individual cell lines), left to attach and recover overnight. […] After 3 days, the cells are incubated with MTT dye (3-[4,5-Dimethylthiazol-2-yl]-2,5-diphenyltetrazolium bromide, Sigma # M5655, 10 mg/ml in Hank's Buffered Saline) to estimate the amount of live cells remaining vs. concentration for the test compounds. Specifically, MTT solution is added to a final concentration of […] and the plates incubated at 37 C for 2 to 4 hr. The MTT and culture medium is then removed from the cultures and 200 µl of DMSO is added to solubilize the dye from the cell layer. The absorbance at 570 nm is determined for each culture using a Spectramax plate reader (Molecular Devices).
(§2) IC50s were determined from the raw data from either the MTT or SRB assays.
(§3) All of the cell lines were obtained from American Type Tissue Collection, with the ATCC accession number in parentheticals. MCF-7 and MDA-MB-231 cells were grown in improved minimum essential medium (Biofluids) without phenol red, supplemented with 5 % fetal bovine serum, 0.01 mg/ml gentamicin and 3 mM L-glutamine. All of the other cell lines were grown in RPMI 1640 medium (Life Technologies) supplemented with 5 % fetal bovine serum, 0.01 mg/ml gentamicin and 3 mM L-glutamine TABLE 3

Another experiment has as its system MDA-MB-435. In words: In vitro proliferation assay (MTT), MDA-MB-435. Format: cell-based, human. The settings on record: Homo sapiens, MDA-MB-435, MTT assay; value (SD, n) where given; read-out: MB-435 Breast (IC50 µM). Summed up: (§4)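 Tetrazolium (MTT) reduction measures live cells remaining after 3 days with test compound, following overnight attachment at 1000–2500 cells/well. Dye is taken up in DMSO and read at 570 nm.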

The target in the next experiment is cdk4/cyclin D1 (Homo sapiens, UniProt P11802). The experiment in a line: Cyclin-dependent kinase assay, cdk4/cyclin D1. In kind it is biochemical. To be noted: cyclin D1/cdk4; GST-pRb substrate, 10 µM ATP.
Sequence of cdk4/cyclin D1 (P11802 whole entry): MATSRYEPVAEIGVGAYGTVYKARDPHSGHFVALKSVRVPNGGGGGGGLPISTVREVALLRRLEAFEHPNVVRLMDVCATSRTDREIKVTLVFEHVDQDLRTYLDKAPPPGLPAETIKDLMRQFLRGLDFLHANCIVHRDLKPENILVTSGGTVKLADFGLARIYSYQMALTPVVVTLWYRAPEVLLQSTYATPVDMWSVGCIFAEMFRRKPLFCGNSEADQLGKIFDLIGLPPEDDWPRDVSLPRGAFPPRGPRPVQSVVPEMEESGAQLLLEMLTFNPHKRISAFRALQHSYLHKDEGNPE
Sequence of cdk4/cyclin D1 (P24385 whole entry partner): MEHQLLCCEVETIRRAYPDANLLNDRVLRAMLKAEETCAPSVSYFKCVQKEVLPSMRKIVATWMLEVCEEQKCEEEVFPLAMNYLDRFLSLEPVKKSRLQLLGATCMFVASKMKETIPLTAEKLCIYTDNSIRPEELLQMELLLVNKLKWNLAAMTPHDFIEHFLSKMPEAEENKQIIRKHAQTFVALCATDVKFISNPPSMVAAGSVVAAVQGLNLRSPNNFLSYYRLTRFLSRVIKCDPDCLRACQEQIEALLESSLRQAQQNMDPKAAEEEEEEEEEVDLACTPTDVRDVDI
In a further experiment the target is cdk2/cyclin E (Homo sapiens, UniProt P24941). In words: Cyclin-dependent kinase assay, cdk2/cyclin E. To be noted: CDK2 IC50, nM, GST-pRb substrate, 10 µM ATP.
For another experiment, the target named is cdk1/cyclin B (Homo sapiens, UniProt P06493). The experiment in a line: Cyclin-dependent kinase assay, cdk1/cyclin B. To be noted: CDK1 IC50, nM, Histone H1, 10 µM ATP.
Sequence of cdk1/cyclin B (P06493 whole entry): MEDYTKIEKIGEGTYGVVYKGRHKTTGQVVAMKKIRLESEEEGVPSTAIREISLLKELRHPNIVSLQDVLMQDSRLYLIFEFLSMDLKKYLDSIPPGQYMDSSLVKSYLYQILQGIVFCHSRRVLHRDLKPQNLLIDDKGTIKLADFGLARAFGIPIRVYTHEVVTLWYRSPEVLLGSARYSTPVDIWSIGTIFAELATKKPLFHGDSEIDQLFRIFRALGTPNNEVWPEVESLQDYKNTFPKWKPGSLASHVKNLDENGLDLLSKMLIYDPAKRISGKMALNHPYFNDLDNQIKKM
Sequence of cdk1/cyclin B (P14635 whole entry partner): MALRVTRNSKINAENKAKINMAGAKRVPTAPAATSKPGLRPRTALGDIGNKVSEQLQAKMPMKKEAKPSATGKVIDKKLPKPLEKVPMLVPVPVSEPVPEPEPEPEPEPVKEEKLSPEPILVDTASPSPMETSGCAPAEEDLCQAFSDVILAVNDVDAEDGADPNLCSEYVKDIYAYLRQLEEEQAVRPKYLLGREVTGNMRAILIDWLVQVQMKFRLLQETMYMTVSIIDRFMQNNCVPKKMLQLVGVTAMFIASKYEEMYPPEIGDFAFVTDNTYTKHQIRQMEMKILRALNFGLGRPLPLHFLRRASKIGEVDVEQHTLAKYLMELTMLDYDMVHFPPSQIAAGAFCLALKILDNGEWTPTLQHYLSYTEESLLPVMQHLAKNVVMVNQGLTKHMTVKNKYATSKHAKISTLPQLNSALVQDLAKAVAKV
The subject of a further experiment is Colo-205. The experiment in a line: In vitro proliferation assay (MTT), Colo-205. The settings on record: Homo sapiens, COLO 205; MTT assay; value (SD, n) where given; read-out: Colo-205 Colon (IC50 µM). In kind it is cell-based. Summed up:
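After 3 days of compound exposure, MTT was added to Colo-205 cultures for 2–4 h at 37 °C. Formazan was dissolved in DMSO and absorbance read at 570 nm. Cells had been plated at 1000–2500/well and left to recover overnight; IC50 values came from the raw readings.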

Another experiment has as its system NCI-H460. In words: In vitro proliferation assay (MTT), NCI-H460. To be noted: Homo sapiens, NCI-H460; MTT assay; value (SD, n) where given; read-out: H-460 Lung (IC50 µM). Format: cell-based. In a few lines:
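Overnight-recovered cultures (1000–2500 cells/well) were treated with compound for 3 days and then given MTT at 37 C for 2–4 hr. Dye was extracted with DMSO and read at 570 nm. IC50s were fitted to the absorbance-versus-concentration data.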

A further experiment concerns PC-3. In words: In vitro proliferation assay (MTT), PC-3. The settings on record: Homo sapiens, PC-3, MTT assay; value (SD, n) where given; read-out: PC-3 Prostate (IC50 µM). In kind it is cell-based, human. Summed up:
as §4

The next experiment concerns Jurkat. In words: In vitro proliferation assay (MTT), Jurkat. In kind it is cell-based. The settings on record: Homo sapiens, MTT assay, value (SD, n) where given, read-out: Jurkat Leuk. (IC50 µM). On the procedure:
as §1, §2, §3

Method for cdk1/cyclin B: The IC50 values for cdk1/cyclin B, cdk2/cyclin E, and cdk4/cyclin D1 inhibition are determined using the following methods: • The cdk1 sequence (accession number Y00272) is amplified by PCR and cloned into the BamHI and SalI sites of pFASTBAC1 (Life Technologies).
The cyclin B1 sequence (accession number M25753) is amplified by PCR and cloned into the BamHI and SalI sites of pFASTBAC1 (Life Technologies).
The insect cell (Sf9) expression is optimized for each of the CDK/cyclin pairs according to the manufacturer's protocols (Life Technologies). For cdk4-HA/cyclin D1-His6 an infection of 0.1 multiplicity of infection (MOI) for 48 hours gives the best expression levels of the complex as well as activity.
(§5) The viruses are added to the cells and the culture is incubated at 27°C for the desired time. The cells are harvested by centrifugation at 3000 rpm for 10 minutes. The cells are snap frozen on dry ice and stored at - 80°C.
(§6) Cell extracts are made following a standard procedure. The cell pellet is resuspended in lysis buffer (50 mM HEPES, pH 8.0, 10 mM MgCl2, 1 mM DTT, 2.5 mM EGTA, 1 mM EDTA, 10 mM β-glycerophosphate, 1 mM sodium vanadate, 1 mM sodium fluoride, 1 x Protease inhibitor cocktail). The cells are lysed using the microfluidizer (Microfluidics) for 20 minutes. Cell debris is removed by centrifugation at 100,000 x g. The cell extracts are aliquoted in 1 ml aliquots, frozen on dry ice, and stored at -80°C.
The kinase reactions are performed following a standard procedure. The enzyme and inhibitor are diluted in kinase buffer (50 mM HEPES, pH 8.0, 10 mM MgCl2, 2.5 mM EGTA, 10 mM β-glycerophosphate, 1 mM sodium vanadate, 1 mM sodium fluoride, and 1 mM DTT) and pre-incubated for 30 minutes. […] The cdk1 enzyme activity is assayed using Histone H1 (Sigma) in the presence of 10 µM ATP for 30 min at room temperature. The reactions are terminated by the addition of 50 µL of 10 mM cold ATP to stop the reactions. The reactions are transferred to a pre-soaked 96-well multi-screen plate containing 30 µL of 100% TCA per well. After incubation for one hour at room temperature, the plates are washed twice with 200 µl of 20% TCA, followed by 200 µl of 10% TCA and finally with 200 µl of 5% TCA. After drying the plates at room temperature, the filter plates are placed in adapter plates (Packard) and 40 µl of Microscint-O® (Packard) is added to each well. Top Seal A film is used to cover the plates before counting in a Top Count Scintillation Counter.
The % remained activity of the indicated Cdk/cyclin kinase complex in the presence of inhibitor is calculated by the ratio of cpm in the presence of inhibitor to cpm in the absence of inhibitor (%Activity = vi/vo x 100%).
Method for cdk2/cyclin E: The insect cell (Sf9) expression is optimized for each of the CDK/cyclin pairs according to the manufacturer's protocols (Life Technologies).
as §5, §6
The kinase reactions are performed following a standard procedure. The enzyme and inhibitor are diluted in kinase buffer (50 mM HEPES, pH 8.0, 10 mM MgCl2, 2.5 mM EGTA, 10 mM β-glycerophosphate, 1 mM sodium vanadate, 1 mM sodium fluoride, and 1 mM DTT) and pre-incubated for 30 minutes. The cdk2 and cdk4 enzyme activities are assayed using 500 ng of the GST-pRb substrate (see description below) in the presence of 10 µM cold ATP and 1 µCi of [γ-^33P] ATP for 30 minutes at room temperature. […] The reactions are terminated by the addition of 50 µL of 10 mM cold ATP to stop the reactions. The reactions are transferred to a pre-soaked 96-well multi-screen plate containing 30 µL of 100% TCA per well. After incubation for one hour at room temperature, the plates are washed twice with 200 µl of 20% TCA, followed by 200 µl of 10% TCA and finally with 200 µl of 5% TCA. After drying the plates at room temperature, the filter plates are placed in adapter plates (Packard) and 40 µl of Microscint-O® (Packard) is added to each well.

As for `N[C@H]1CC[C@H](Nc2nc(NC3CCN(S(=O)(=O)c4ccc(C(F)(F)F)cc4[N+](=O)[O-])CC3)c3ncn(C4CCCC4)c3n2)CC1` [compound 132, trans-N^2-(4-Amino-cyclohexyl)-9-cyclopentyl-N^6-[1-(2-nitro-4-trifluoromethyl-benzenesulfonyl)-piperidin-4-yl]-9H-purine-2,6-diamine dihydrochloride], the IC50 with HL-60 is below 0.02 µM; in the experiment with MDA-MB-435 it was 0.21 µM; against cdk2/cyclin E, 35 nM; on cdk1/cyclin B it was 74 nM; with Colo-205, 0.04 µM; in the experiment on NCI-H460 it was 0.12 µM. Also, the IC50 with PC-3 amounted to 0.15 µM; with Jurkat, 0.21 µM. For the same compound, the pIC50 on cdk4/cyclin D1 was 6.23.
As to `N[C@H]1CC[C@H](Nc2nc(NC3CCN(S(=O)(=O)c4cccc5cccnc45)CC3)c3ncn(C4CCCC4)c3n2)CC1` [compound 144, trans-N^2-(4-Amino-cyclohexyl)-9-cyclopentyl-N^6-[1-(quinoline-8-sulfonyl)-piperidin-4-yl]-9H-purine-2,6-diamine dihydrochloride], the IC50 in the experiment with HL-60 came to 0.12 µM; in the experiment on MDA-MB-435, 0.16 µM; against cdk2/cyclin E, 2 nM; against cdk1/cyclin B, 2 nM; in the experiment with Colo-205, 0.05 µM; with NCI-H460 it was 0.33 µM. For the same compound, the IC50 in the experiment on PC-3 was determined as 0.18 µM; in the experiment on Jurkat, 0.25 µM. On cdk4/cyclin D1, this compound gave a pIC50 of 7.12.
`N[C@H]1CC[C@H](Nc2nc(NC3CCN(C(=O)Nc4ccccc4)CC3)c3ncn(C4CCCC4)c3n2)CC1` [compound 146, trans-4-[2-(4-Amino-cyclohexylamino)-9-cyclopentyl-9H-purin-6-ylamino]-piperidine-1-carboxylic acid phenylamide dihydrochloride]: the IC50 with HL-60 was 0.04 µM; in the experiment on MDA-MB-435, 0.35 µM; at cdk2/cyclin E, 42 nM; at cdk1/cyclin B, 18 nM; with Colo-205, below 0.02 µM; with NCI-H460 it was 0.42 µM. Besides, the IC50 in the experiment on PC-3 came out at 0.34 µM; with Jurkat, 0.32 µM. Besides, on cdk4/cyclin D1, the pIC50 was 6.70.
Take `N[C@H]1CC[C@H](Nc2nc(NC3CCN(C(=O)Nc4ccc(F)cc4)CC3)c3ncn(C4CCCC4)c3n2)CC1` [compound 147, trans-4-[2-(4-Amino-cyclohexylamino)-9-cyclopentyl-9H-purin-6-ylamino]-piperidine-1-carboxylic acid (4-fluoro-phenyl)-amide dihydrochloride]: the IC50 is 0.03 µM with HL-60; 0.33 µM with MDA-MB-435; 46 nM against cdk2/cyclin E; 38 nM against cdk1/cyclin B; below 0.02 µM with Colo-205; 0.56 µM in the experiment with NCI-H460. Also, the values for the IC50 in the experiment with PC-3 and in the experiment on Jurkat were 0.36 µM and 0.51 µM, respectively. This compound also gave a pIC50 on cdk4/cyclin D1 of 6.59.
As to `N[C@H]1CC[C@H](Nc2nc(NC3CCN(C(=O)Nc4ccc(Cl)cc4)CC3)c3ncn(C4CCCC4)c3n2)CC1` [compound 150, trans-4-[2-(4-Amino-cyclohexylamino)-9-cyclopentyl-9H-purin-6-ylamino]-piperidine-1-carboxylic acid (4-chloro-phenyl)-amide dihydrochloride], the IC50 with HL-60 was below 0.02 µM; with MDA-MB-435, 0.2 µM; on cdk2/cyclin E it was 55 nM; at cdk1/cyclin B it was 26 nM; in the experiment with Colo-205, 0.02 µM; in the experiment on NCI-H460, 0.19 µM. The IC50 with PC-3 turned out to be 0.25 µM; with Jurkat it was 0.24 µM. At cdk4/cyclin D1, this compound showed a pIC50 of 7.04.
Regarding `N[C@H]1CC[C@H](Nc2nc(NC3CCN(C(=O)Nc4cccc(C(F)(F)F)c4)CC3)c3ncn(C4CCCC4)c3n2)CC1` [compound 159, trans-4-[2-(4-Amino-cyclohexylamino)-9-cyclopentyl-9H-purin-6-ylamino]-piperidine-1-carboxylic acid (3-trifluoromethyl-phenyl)-amide dihydrochloride], the IC50 in the experiment with HL-60 turned out to be 0.07 µM; in the experiment on MDA-MB-435, 0.2 µM; at cdk2/cyclin E, 16 nM; against cdk1/cyclin B it was 4 nM; in the experiment on Colo-205, 0.02 µM; in the experiment with NCI-H460, 0.4 µM. The figures for the IC50 with PC-3 and with Jurkat were 0.33 µM and 0.41 µM, respectively. At cdk4/cyclin D1, this compound gave a pIC50 of 6.15.
Turning to `N[C@H]1CC[C@H](Nc2nc(NC3CCN(C(=O)Nc4ccc(Br)cc4)CC3)c3ncn(C4CCCC4)c3n2)CC1` [compound 162, trans-4-[2-(4-Amino-cyclohexylamino)-9-cyclopentyl-9H-purin-6-ylamino]-piperidine-1-carboxylic acid (4-bromo-phenyl)-amide dihydrochloride], the IC50 in the experiment with HL-60 is below 0.02 µM; in the experiment on MDA-MB-435, 0.14 µM; against cdk2/cyclin E, 72 nM; at cdk1/cyclin B, 15 nM; in the experiment with Colo-205 it was 0.04 µM; in the experiment on NCI-H460, 0.18 µM. Moreover, the results for the IC50 in the experiment with PC-3 and with Jurkat were 0.12 µM and 0.19 µM, respectively. The compound also gave a pIC50 on cdk4/cyclin D1 of 6.22.
Turning to `COc1ccccc1NC(=O)N1CCC(Nc2nc(N[C@H]3CC[C@H](N)CC3)nc3c2ncn3C2CCCC2)CC1` [compound 163, trans-4-[2-(4-Amino-cyclohexylamino)-9-cyclopentyl-9H-purin-6-ylamino]-piperidine-1-carboxylic acid (2-methoxy-phenyl)-amide dihydrochloride], the IC50 is 0.05 µM in the experiment on HL-60; 0.17 µM in the experiment on MDA-MB-435; 57 nM against cdk2/cyclin E; 37 nM against cdk1/cyclin B; 0.19 µM with Colo-205; 0.21 µM in the experiment on NCI-H460. For the same compound, the IC50 is 0.21 µM in the experiment with PC-3 and 0.28 µM with Jurkat. The compound also gave a pIC50 on cdk4/cyclin D1 of 6.07.
For the compound `N[C@H]1CC[C@H](Nc2nc(NC3CCN(C(=O)Nc4cccc(Cl)c4)CC3)c3ncn(C4CCCC4)c3n2)CC1` [compound 165, trans-4-[2-(4-Amino-cyclohexylamino)-9-cyclopentyl-9H-purin-6-ylamino]-piperidine-1-carboxylic acid (3-chloro-phenyl)-amide dihydrochloride], the IC50 was below 0.02 µM with HL-60; 0.08 µM in the experiment on MDA-MB-435; 21 nM at cdk2/cyclin E; 11 nM on cdk1/cyclin B; 0.02 µM in the experiment on Colo-205; 0.2 µM with NCI-H460. For the same compound, the IC50 in the experiment with PC-3 amounted to 0.13 µM; in the experiment with Jurkat, 0.22 µM. The pIC50 at cdk4/cyclin D1 was 6.15.
As for `N[C@H]1CC[C@H](Nc2nc(NC3CCN(C(=O)Nc4ccccc4Cl)CC3)c3ncn(C4CCCC4)c3n2)CC1` [compound 169, trans-4-[2-(4-Amino-cyclohexylamino)-9-cyclopentyl-9H-purin-6-ylamino]-piperidine-1-carboxylic acid (2-chloro-phenyl)-amide dihydrochloride], the IC50 with HL-60 was found to be 0.04 µM; in the experiment with MDA-MB-435, 0.11 µM; against cdk2/cyclin E, 45 nM; on cdk1/cyclin B it was 28 nM; in the experiment on Colo-205, 0.09 µM; in the experiment on NCI-H460, 0.15 µM. Also, the IC50 in the experiment with PC-3 was determined as 0.15 µM; in the experiment on Jurkat it was 0.21 µM. On cdk4/cyclin D1, the pIC50 is 6.89.
